biological target: T1, human orexin type 2 receptor (Homo sapiens, UniProt O43614); test: Measurement of orexin type 2 receptor agonist activity (calcium fluorescence, Fluo-4 AM, FDSS); type: cell-based; conditions: test compound 3 μM; CHO cells expressing human OX2 receptor; DMSO = 0%, orexin A (human) = 100%
T1 construct: expressed in transfected cells
T1 sequence (O43614 1-444): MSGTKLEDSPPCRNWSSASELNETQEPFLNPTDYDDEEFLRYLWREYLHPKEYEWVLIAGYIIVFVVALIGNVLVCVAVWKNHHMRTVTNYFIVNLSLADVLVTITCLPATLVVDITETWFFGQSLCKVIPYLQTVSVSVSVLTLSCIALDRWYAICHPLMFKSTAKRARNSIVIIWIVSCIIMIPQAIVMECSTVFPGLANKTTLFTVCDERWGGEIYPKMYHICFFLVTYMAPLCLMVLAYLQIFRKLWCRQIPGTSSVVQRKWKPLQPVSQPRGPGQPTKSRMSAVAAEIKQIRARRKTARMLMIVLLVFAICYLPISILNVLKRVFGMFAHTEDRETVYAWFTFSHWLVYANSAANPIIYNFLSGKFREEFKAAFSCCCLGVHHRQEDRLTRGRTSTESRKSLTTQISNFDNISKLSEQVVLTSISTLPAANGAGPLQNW
Method in brief: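 Agonist response scaled between vehicle (0%) and human orexin A at 10 nM final (100%), from 2-min kinetic Fluo-4 fluorescence reads. Stable hOX2R CHO-K1 clone, dye-loaded in HBSS/20 mM HEPES/0.1% BSA with 1.25 mM probenecid before compound addition.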

| OX2R agonist activity (3 μM, %) | Compound |
| --- | --- |
| 57% | CS(=O)(=O)NCC1CN(C(=O)C2CC2c2ccccc2-c2c(F)cccc2F)CCC1(F)F (racemic) [Example 275, a mixture of rac-N-({(3R)-1-[(1R,2R)-2-(2′,6′-difluoro[1,1′-biphenyl]-2-yl)cyclopropane-1-carbonyl]-4,4-difluoropiperidin-3-yl}methyl)methanesulfonamide and rac-N-({(3S)-1-[(1R,2R)-2-(2′,6′-difluoro[1,1′-biphenyl]-2-yl)cyclopropane-1-carbonyl]-4,4-difluoropiperidin-3-yl}methyl)methanesulfonamide] |
| 97% | CN(C)S(=O)(=O)N[C@H]1CCCN(C(=O)[C@@H]2C[C@H]2c2ccccc2-c2c(F)cccc2F)C1 [Example 302, N′-{(3S)-1-[(1R,2R)-2-(2′,6′-difluoro[1,1′-biphenyl]-2-yl)cyclopropane-1-carbonyl]piperidin-3-yl}-N,N-dimethylsulfuric diamide] |
| 100% | CN(C)S(=O)(=O)NC[C@H]1CCN1C(=O)[C@@H]1C[C@H]1c1ccccc1-c1c(F)cccc1F [Example 298, N′-({(2R)-1-[(1R,2R)-2-(2′,6′-difluoro[1,1′-biphenyl]-2-yl)cyclopropane-1-carbonyl]azetidin-2-yl}methyl)-N,N-dimethylsulfuric diamide] |
| 101% | CC1CCN(C(=O)C2CC2c2ccccc2-c2c(F)cccc2F)CCC1NS(C)(=O)=O (racemic) [Example 186] |
| 96% | C[C@H]1C[C@H](NS(=O)(=O)N(C)C)CN1C(=O)[C@@H]1C[C@H]1c1ccccc1-c1c(F)cccc1F [Example 281, N′-{(3S,5S)-1-[(1R,2R)-2-(2′,6′-difluoro[1,1′-biphenyl]-2-yl)cyclopropane-1-carbonyl]-5-methylpyrrolidin-3-yl}-N,N-dimethylsulfuric diamide] |
| 96% | CS(=O)(=O)NC[C@@H]1CCN1C(=O)[C@@H]1C[C@@]1(F)c1ccccc1-c1c(F)cccc1F [Example 352, N-({(2S)-1-[(1S,2S)-2-(2′,6′-difluoro[1,1′-biphenyl]-2-yl)-2-fluorocyclopropane-1-carbonyl]azetidin-2-yl}methyl)methanesulfonamide] |
| 96% | Cc1ccc(C2CC2C(=O)N2CC[C@H](NS(C)(=O)=O)C2)c(-c2c(F)cccc2F)c1 (stereo partly drawn) [Example 318, N-{(3S)-1-[(1R,2R)-2-(2′,6′-difluoro-5-methyl [1,1′-biphenyl]-2-yl)cyclopropane-1-carbonyl]pyrrolidin-3-yl}methanesulfonamide, or N-{(3S)-1-[(1S,2S)-2-(2′,6′-difluoro-5-methyl[1,1′-biphenyl]-2-yl)cyclopropane-1-carbonyl]pyrrolidin-3-yl}methanesulfonamide] |

More lines, now with the values behind:

| Compound | OX2R agonist activity (3 μM, %) |
| --- | --- |
| COC[C@H](NS(C)(=O)=O)C1CCN1C(=O)[C@@H]1C[C@@]1(F)c1ccccc1-c1c(F)cccc1F (stereo partly drawn) [Example 419, N-[(1R)-1-{(2R)-1-[(1S,2S)-2-(2′,6′-difluoro[1,1′-biphenyl]-2-yl)-2-fluorocyclopropane-1-carbonyl]azetidin-2-yl}-2-methoxyethyl]methanesulfonamide, or N-[(1R)-1-{(2S)-1-[(1S,2S)-2-(2′,6′-difluoro[1,1′-biphenyl]-2-yl)-2-fluorocyclopropane-1-carbonyl]azetidin-2-yl}-2-methoxyethyl]methanesulfonamide] | 104% |
| CS(=O)(=O)NC1CCN(C(=O)C2CC2c2ccc(C(F)F)cc2-c2c(F)cccc2F)C1 (racemic) [Example 228, a mixture of rac-N-[(3R)-1-{(1R,2R)-2-[5-(difluoromethyl)-2′,6′-difluoro[1,1′-biphenyl]-2-yl]cyclopropane-1-carbonyl}pyrrolidin-3-yl]methanesulfonamide and rac-N-[(3S)-1-{(1R,2R)-2-[5-(difluoromethyl)-2′,6′-difluoro[1,1′-biphenyl]-2-yl]cyclopropane-1-carbony}pyrrolidin-3-yl]methanesulfonamide] | 90% |
| CC[C@@H]1CN(C(=O)[C@@H]2C[C@@]2(F)c2ccccc2-c2c(F)cccc2F)[C@@H]1CNS(C)(=O)=O [Example 380, N-({(2S,3R)-1-[(1S,2S)-2-(2′,6′-difluoro[1,1′-biphenyl]-2-yl)-2-fluorocyclopropane-1-carbonyl]-3-ethylazetidin-2-yl}methyl)methanesulfonamide] | 92% |
| CS(=O)(=O)NC1CCCN(C(=O)C2CC2c2ccccc2-c2ccccc2Cl)CC1 (racemic) [Example 43, a mixture of rac-N-{(4R)-1-[(1R,2R)-2-(2′-chloro[1,1′-biphenyl]-2-yl)cyclopropane-1-carbonyl]azepan-4-yl}methanesulfonamide and rac-N-{(4S)-1-[(1R,2R)-2-(2′-chloro[1,1′-biphenyl]-2-yl)cyclopropane-1-carbonyl]azepan-4-yl}methanesulfonamide] | 92% |
| CCCS(=O)(=O)NC[C@@H]1[C@H](F)CN1C(=O)[C@@H]1C[C@@]1(F)c1ccc(F)cc1-c1c(F)cccc1F [Example 433, N-({(2R,3R)-3-fluoro-1-[(1S,2S)-2-fluoro-2-(2′,5,6′-trifluoro[1,1′-biphenyl]-2-yl)cyclopropane-1-carbonyl]azetidin-2-yl}methyl)propane-1-sulfonamide] | 95% |
| Cc1noc(C2(NS(C)(=O)=O)CCN(C(=O)[C@@H]3C[C@@]3(F)c3ccccc3-c3c(F)cccc3F)C2)n1 (mixture of isomers) [Example 421, a mixture of N-[(3R)-1-[(1S,2S)-2-(2′,6′-difluoro[1,1′-biphenyl]-2-yl)-2-fluorocyclopropane-1-carbonyl]-3-(3-methyl-1,2,4-oxadiazol-5-yl)pyrrolidin-3-yl]methanesulfonamide and N-[(3S)-1-[(1S,2S)-2-(2′,6′-difluoro[1,1′-biphenyl]-2-yl)-2-fluorocyclopropane-1-carbonyl]-3-(3-methyl-1,2,4-oxadiazol-5-yl)pyrrolidin-3-yl]methanesulfonamide] | 88% |
| CCS(=O)(=O)NC[C@@H]1[C@H](F)CN1C(=O)C1CC1(F)c1ccccc1-c1ccccc1F (stereo partly drawn) [Example 442, N-({(2R,3R)-3-fluoro-1-[(1R,2R)-2-fluoro-2-(2′-fluoro[1,1′-biphenyl]-2-yl)cyclopropane-1-carbonyl]azetidin-2-yl}methyl)ethanesulfonamide, or N-({(2R,3R)-3-fluoro-1-[(1S,2S)-2-fluoro-2-(2′-fluoro[1,1′-biphenyl]-2-yl)cyclopropane-1-carbonyl]azetidin-2-yl}methyl)ethanesulfonamide] | 100% |
| CS(=O)(=O)N[C@H]1CCCN(C(=O)C2C(c3ccccc3-c3c(F)cccc3F)C2(F)F)C1 (stereo partly drawn) [Example 330, N-{(3S)-1-[(1R,3R)-3-(2′,6′-difluoro[1,1′-biphenyl]-2-yl)-2,2-difluorocyclopropane-1-carbonyl]piperidin-3-yl}methanesulfonamide, or N-{(3S)-1-[(1S,3S)-3-(2′,6′-difluoro[1,1′-biphenyl]-2-yl)-2,2-difluorocyclopropane-1-carbonyl]piperidin-3-yl}methanesulfonamide] | 91% |
| CC1(NS(C)(=O)=O)CN(C(=O)[C@@H]2C[C@@]2(F)c2ccccc2-c2c(F)cccc2F)CC1(F)F (stereo partly drawn) [Example 375, N-{(3R)-1-[(1S,2S)-2-(2′,6′-difluoro[1,1′-biphenyl]-2-yl)-2-fluorocyclopropane-1-carbonyl]-4,4-difluoro-3-methylpyrrolidin-3-yl}methanesulfonamide, or N-{(3S)-1-[(1S,2S)-2-(2′,6′-difluoro[1,1′-biphenyl]-2-yl)-2-fluorocyclopropane-1-carbonyl]-4,4-difluoro-3-methylpyrrolidin-3-yl}methanesulfonamide] | 92% |
| CC1(NS(C)(=O)=O)CCN(C(=O)[C@@H]2C[C@@]2(F)c2ccccc2-c2c(F)cccc2F)C1 (stereo partly drawn) [Example 344, N-{(3R)-1-[(1S,2S)-2-(2′,6′-difluoro[1,1′-biphenyl]-2-yl)-2-fluorocyclopropane-1-carbonyl]-3-methylpyrrolidin-3-yl}methanesulfonamide, or N-{(3S)-1-[(1S,2S)-2-(2′,6′-difluoro[1,1′-biphenyl]-2-yl)-2-fluorocyclopropane-1-carbonyl]-3-methylpyrrolidin-3-yl}methanesulfonamide] | 95% |
| CS(=O)(=O)NC1CCN(C(=O)C2CC2c2ccccc2-c2ccccc2F)C1 (racemic) [Example 12, a mixture of rac-N-{(3R)-1-[(1R,2R)-2-(2′-fluoro[1,1′-biphenyl]-2-yl)cyclopropane-1-carbonyl]pyrrolidin-3-yl}methanesulfonamide and rac-N-{(3S)-1-[(1R,2R)-2-(2′-fluoro[1,1′-biphenyl]-2-yl)cyclopropane-1-carbonyl]pyrrolidin-3-yl}methanesulfonamide] | 66% |

Source: patent publication US20250250230A1, “HETEROCYCLIC COMPOUND” (TAKEDA PHARMACEUTICAL COMPANY LIMITED, priority 2022, published 2025)
